Results as given in the NIST ThermoML archive (doi:10.1016/j.jct.2006.01.015).

Tests used:
[1] = 101 kPa, Liquid
[2] = xn = mol fraction of the nth substance listed; conditions: 101 kPa, Liquid

CC(=O)N(C)C [N,N-dimethylethanamide]
[1]
Conditions | mass density [kg/m3]
293.15 K | 941
298.15 K | 936.5
303.15 K | 932
308.15 K | 927.6
313.15 K | 923.1
318.15 K | 918.6

CNC(C)=O [N-methylacetamide]
[1]
Conditions | mass density [kg/m3]
293.15 K | 958.4
298.15 K | 954.2
303.15 K | 950.1
308.15 K | 945.9
313.15 K | 941.7
318.15 K | 937.6

CC#N [acetonitrile]
[1]
Conditions | mass density [kg/m3]
293.15 K | 782.1
298.15 K | 776.8
303.15 K | 771.5
308.15 K | 766.3
313.15 K | 761
318.15 K | 755.7

CC#N [acetonitrile] + CC(=O)N(C)C
[2], x1 = 1
Conditions | mass density [kg/m3]
293.15 K | 782.1
298.15 K | 776.8
303.15 K | 771.5
308.15 K | 766.3
313.15 K | 761
318.15 K | 755.7

CC#N [acetonitrile] + CNC(C)=O
[2], x1 = 1
Conditions | mass density [kg/m3]
293.15 K | 782.1
298.15 K | 776.8
303.15 K | 771.5
308.15 K | 766.3
313.15 K | 761
318.15 K | 755.7

CC#N [acetonitrile] + NC=O
[2], x1 = 1
Conditions | mass density [kg/m3]
293.15 K | 782.1
298.15 K | 776.8
303.15 K | 771.5
308.15 K | 766.3
313.15 K | 761
318.15 K | 755.7

CN(C)C=O [dimethylformamide]
[1]
Conditions | mass density [kg/m3]
293.15 K | 949.1
298.15 K | 944.6
303.15 K | 940.1
308.15 K | 935.7
313.15 K | 931.2
318.15 K | 926.7

CN(C)C=O [dimethylformamide] + CC#N
[2], x2 = 0
Conditions | mass density [kg/m3]
293.15 K | 949.1
298.15 K | 944.6
303.15 K | 940.1
308.15 K | 935.7
313.15 K | 931.2
318.15 K | 926.7

NC=O [formamide]
[1]
Conditions | mass density [kg/m3]
293.15 K | 1133
298.15 K | 1129
303.15 K | 1125
308.15 K | 1121
313.15 K | 1117
318.15 K | 1113
